The text below walks through data of US20180015180A1, “SHORT AND D-AMINO ACID-CONTAINING POLYPEPTIDES FOR THERAPEUTIC CONJUGATES AND USES THEREOF” (AngioChem Inc., priority 2010, published 2018).

Data set [1] has as its system mice. Nature of the data set: Induction of hypothermia (body temperature) after intravenous bolus. It counts as in vivo. The conditions noted are these: Table 9 grades.
In data set [2] the test system is pepsin. Description: Stability of oral formulations of Angiopep peptides in the presence of pepsin. It counts as in vitro ADME. To be noted: pepsin (isolated enzyme); 1 mg/mL peptide; 1 mg/25 mL pepsin (diluted 41 times, pH=1.4); 37° C. How it is done:
The stability of oral formulations (1 mg/mL of Angiopep peptide) was determined in the presence of 1 mg/25 mL of pepsin (diluted 41 times, pH=1.4), an enzyme present in gastric fluid, at 37° C. Table 5 provides the half-life (t1/2) for degradation of various Angiopep peptides.

The subject of data set [3] is BBB. Description: In situ brain perfusion in mice with capillary depletion (transport across the BBB). The class given is in vivo. The conditions noted are these: for crossing of the BBB (overall conclusion): mouse, in vivo.
Protocol: The initial transport was measured as a function of time.

Ends that are not written are not given here.

Chain of pepsin (P0DJD8 63-388): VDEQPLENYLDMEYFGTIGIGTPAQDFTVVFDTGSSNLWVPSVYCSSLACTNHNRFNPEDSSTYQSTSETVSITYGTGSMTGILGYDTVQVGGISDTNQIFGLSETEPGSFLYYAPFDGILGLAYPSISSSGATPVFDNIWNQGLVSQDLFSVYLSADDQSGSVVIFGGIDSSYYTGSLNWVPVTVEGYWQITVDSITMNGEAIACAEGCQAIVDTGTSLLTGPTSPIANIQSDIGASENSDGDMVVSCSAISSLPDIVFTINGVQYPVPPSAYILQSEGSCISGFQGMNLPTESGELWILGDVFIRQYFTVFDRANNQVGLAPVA

On to “TFFYGGSRG K R N N F KTEEY E L Y E N K P R R P Y I L (TFFYGGSRGKRNNFKTEEYELYENKPRRPYIL) [An2-NT, fusion protein]”, for which the Hypothermia entry in data set [1] is “✓✓✓”. With `N=C(N)NCCC[C@@H](NC(=O)[C@H](N)CCCCN)C(=O)N[C@@H](CC(N)=O)C(=O)N[C@@H](CC(N)=O)C(=O)N[C@H](Cc1ccccc1)C(=O)N[C@@H](CCCCN)C(=O)N[C@@H](Cc1ccc(O)cc1)C(=O)N[C@@H](CS)C(N)=O` [Peptide P6a, D-Lys-D-Arg-Asn-Asn-D-Phe-Lys-Tyr-Cys], the half-life at 1 mg/mL in data set [2] is > 1080 min.

As to `C[C@@H](O)[C@H](N)C(=O)N[C@@H](Cc1ccccc1)C(=O)N[C@@H](Cc1ccccc1)C(=O)N[C@@H](Cc1ccc(O)cc1)C(=O)NCC(=O)NCC(=O)N[C@@H](CO)C(=O)N[C@H](CCCNC(=N)N)C(=O)NCC(=O)N[C@H](CCCCN)C(=O)N[C@H](CCCNC(=N)N)C(=O)N[C@@H](CC(N)=O)C(=O)N[C@@H](CC(N)=O)C(=O)N[C@@H](Cc1ccccc1)C(=O)N[C@@H](CCCCN)C(=O)N[C@H](C(=O)N[C@@H](CCC(=O)O)C(=O)N[C@@H](CCC(=O)O)C(=O)N[C@@H](Cc1ccc(O)cc1)C(=O)O)[C@@H](C)O` [Peptide 3D-An2], the half-life at 1 mg/mL in data set [2] is 60 min.

In the case of `C[C@@H](O)[C@H](NC(=O)[C@H](CCCCN)NC(=O)[C@@H](Cc1ccccc1)NC(=O)[C@H](CC(N)=O)NC(=O)[C@H](CC(N)=O)NC(=O)[C@@H](CCCNC(=N)N)NC(=O)[C@H](N)CCCCN)C(=O)N[C@@H](CCC(=O)O)C(=O)N[C@@H](CCC(=O)O)C(=O)N[C@@H](Cc1ccc(O)cc1)C(=O)N[C@@H](CS)C(N)=O` [Peptide P5a, D-Lys-D-Arg-Asn-Asn-D-Phe-Lys-Thr-Glu-Glu-Tyr-Cys], the half-life at 1 mg/mL in data set [2] worked out at 21 min. `CC[C@H](C)[C@H](NC(=O)[C@@H](Cc1ccc(O)cc1)NC(=O)[C@@H]1CCCN1C(=O)[C@H](CCCNC(=N)N)NC(=O)[C@H](CCCNC(=N)N)NC(=O)[C@H](CCCCNC(=O)CCCCCN1C(=O)CC(SC[C@H](NC(=O)[C@H](Cc2ccc(O)cc2)NC(=O)[C@H](CCC(=O)O)NC(=O)[C@H](CCC(=O)O)NC(=O)[C@@H](NC(=O)[C@H](CCCCN)NC(=O)[C@@H](Cc2ccccc2)NC(=O)[C@H](CC(N)=O)NC(=O)[C@H](CC(N)=O)NC(=O)[C@@H](CCCNC(=N)N)NC(=O)[C@H](N)CCCCN)[C@@H](C)O)C(N)=O)C1=O)NC(C)=O)C(=O)N[C@@H](CC(C)C)C(=O)O` (stereo partly shown) [Peptide P5a-NT1]: the brain uptake entry in data set [3] (in situ brain perfusion in mice, initial transport measured as a function of time) is “higher than for neurotensin (NT)”. `N=C(N)NCCC[C@H](NC(=O)[C@@H](N)CCCCN)C(=O)N[C@@H](CC(N)=O)C(=O)N[C@@H](CC(N)=O)C(=O)N[C@@H](Cc1ccccc1)C(=O)N[C@@H](CCCCN)C(=O)N[C@@H](Cc1ccc(O)cc1)C(=O)N[C@@H](CS)C(N)=O` [Peptide P6]: the half-life at 1 mg/mL in data set [2] is > 240 min. Consider FYGGSRGKRNNFKTEEYC-NH2 [Peptide P1], for which, in data set [3], the “crossing of the BBB (overall conclusion)” value was “effectively cross the BBB”. `C[C@@H](O)[C@H](N)C(=O)N[C@@H](Cc1ccccc1)C(=O)N[C@@H](Cc1ccccc1)C(=O)N[C@@H](Cc1ccc(O)cc1)C(=O)NCC(=O)NCC(=O)N[C@@H](CO)C(=O)N[C@@H](CCCNC(=N)N)C(=O)NCC(=O)N[C@@H](CCCCN)C(=O)N[C@@H](CCCNC(=N)N)C(=O)N[C@@H](CC(N)=O)C(=O)N[C@@H](CC(N)=O)C(=O)N[C@@H](Cc1ccccc1)C(=O)N[C@@H](CCCCN)C(=O)N[C@H](C(=O)N[C@@H](CCC(=O)O)C(=O)N[C@@H](CCC(=O)O)C(=O)N[C@@H](Cc1ccc(O)cc1)C(=O)O)[C@@H](C)O` [An2, T F F Y G G S R G K R N N F K T E E Y, reference compound]: in data set [2], the half-life at 1 mg/mL was 40 min. Take `C[C@@H](O)[C@H](NC(=O)[C@H](CCCCN)NC(=O)[C@H](Cc1ccccc1)NC(=O)[C@H](CC(N)=O)NC(=O)[C@H](CC(N)=O)NC(=O)[C@H](CCCNC(=N)N)NC(=O)[C@@H](N)CCCCN)C(=O)N[C@@H](CCC(=O)O)C(=O)N[C@@H](CCC(=O)O)C(=O)N[C@@H](Cc1ccc(O)cc1)C(=O)N[C@@H](CS)C(N)=O` [Peptide P5]: in data set [2], the half-life at 1 mg/mL was 24 min. In addition, the “crossing of the BBB (overall conclusion)” value in data set [3] is listed as “effectively cross the BBB”.
